Test results from patent publication US20100119483A1, “PEPTIDE VIRAL ENTRY INHIBITORS” (Schering Corporation, priority 2004, published 2010).
Several values for one entry are separate records, joined by “and”; a condition that tells them apart may be missing. Equal entries are not always repeated.

How the values were obtained:
Format in all cases: cell-based, hepatitis C virus
HCV pseudoparticles [1] = assay: HCV pseudoparticle entry assay, anti-CD81 antibody and peptide titrated in a 96-well matrix; settings: HCV entry inhibition, combination
Protocol: The anti-CD81 antibody and the peptide were titrated in duplicates in a 96-well formatted matrix and tested in an HCV pseudoparticle entry assay. The assays were carried out essentially as described above.
Dose response curves of anti-CD81 antibody with various amounts of peptide were plotted vs. RLU, and the results are summarized below. […] When the peptide was present at 10-30% of its IC50 concentration, the IC50 for anti-CD81 was reduced by 3 to 6-fold. Similarly, when the peptide was present at 1% to 25% of its IC75 concentration, the IC75 for the anti-CD81 antibody was reduced by 3 to 9 fold. Thus, the peptide enhances the potency of the anti-CD81 antibody.

HCVpp = assay: Wash off study, HCVpp entry under conditions A-D at 37° C. or 4° C.; settings: for luciferase units: 37° C.; for luciferase units observed in the entry assay: 4° C., listed as V-2b
Protocol: To identify if the peptides of the invention bind to the cells and therefore inhibit entry, anti-CD81 antibody or peptide (SEQ ID NO: 77) was tested at four conditions: • (A) peptide or anti-CD81 antibody was pre-incubated with cells and virus separately, cells were washed and virus together with peptide was added; • (B) peptide or anti-CD81 antibody was pre-incubated with virus only first and then virus together with peptide was added to the cells; • (C) peptide or anti-CD81 antibody was preincubated with cells only and washed off, and then virus was added; and • (D) same as C except that virus was washed off after 1 hour of incubation.
The majority of difference seen before the 4-hour time-point is in line with the model wherein most of the entry events occur during the first four hours (data not shown). As expected, the RLU signal was reduced at earlier time points and lead to higher variation of the assay. […] In anticipating similar phenomena might exist with the peptide, we applied the one hour virus incubation in the following studies. In tables 19-22, condition D was identical to condition C except that virus was removed after 1 hour of incubation. […] Anti-CD81 antibody binds to CD81 expressed on the cells and therefore blocks HCVpp entry.
The data in tables 19 and 20 were generated in assays conducted at 37° C. The date generated in tables 21 and 22 were generated in assays conducted at 4° C. The numbers in each table (19-22) represent the luciferase units observed in the entry assay under each indicated condition.

HCV pseudoparticles [2] = assay: Fusion/attachment experiments with HCV pseudoparticles (4° C. attachment, 37° C. entry); settings: for RLU: single replicates, listed as V-2b
Protocol: The entry process was allowed to complete after the cells were washed and incubated at 37° C. for 72 hours. If the peptide blocked or interfered with the attachment, few HCVpp particles should bind to the cells and lead to reduced luciferase signal. The peptide had approximately 50% inhibition whereas the anti-CD81 antibody inhibited entry by 20%. Alternatively, an explanation could be that the cell-associated peptide or antibody had no effects on virus attachment, but rather inhibit post-attachment steps, e.g. fusion. When we allowed the HCV pseudoparticles to attach first at 4° C., a nonpermissive temperature for fusion, and added the peptide or anti-CD81 antibody when post-attachment events occurred, anti-CD81 antibody almost inhibited entry by 100%, whereas, the peptide inhibited by approximately 80%.
The incubation scheme for the fusion/attachment experiments is summarized as follows: […]

[3] = peptide 0.0457 ug/ml, condition A
[4] = peptide 0.0457 ug/ml, condition B
[5] = peptide 0.0457 ug/ml, condition C
[6] = peptide 0.1372 ug/ml, condition A
[7] = peptide 0.1372 ug/ml, condition B
[8] = peptide 0.1372 ug/ml, condition C
[9] = peptide 0.4115 ug/ml, condition A
[10] = peptide 0.4115 ug/ml, condition B
[11] = peptide 0.4115 ug/ml, condition C
[12] = peptide 1.2346 ug/ml, condition A
[13] = peptide 1.2346 ug/ml, condition B
[14] = peptide 1.2346 ug/ml, condition C
[15] = peptide 3.7037 ug/ml, condition A
[16] = peptide 3.7037 ug/ml, condition B
[17] = peptide 3.7037 ug/ml, condition C
[18] = peptide 11.1111 ug/ml, condition A
[19] = peptide 11.1111 ug/ml, condition C
[20] = peptide 33.3333 ug/ml, condition A
[21] = peptide 33.3333 ug/ml, condition B
[22] = peptide 33.3333 ug/ml, condition C
[23] = A + P (attachment + post attachment)

“V-S-F-A-I-K-W-E-Y-V-L-L-L-F-L-L [SEQ ID NO: 77]” was tested, and the “effect of the peptide on potency of anti-CD81 antibody” value (HCV pseudoparticles [1]) was “enhance the potency of an anti-CD81 antibody”, the luciferase units (HCVpp; peptide 0.0046 ug/ml (two lines), condition A) was 74772 luciferase units and 76125 luciferase units and 57485 luciferase units and 58523 luciferase units and the luciferase units (HCVpp; peptide 0.0046 ug/ml (two lines), condition B) was 65028 luciferase units and 60343 luciferase units and 57349 luciferase units and 51858 luciferase units. For the same substance, the luciferase units (HCVpp; peptide 0.0046 ug/ml (two lines), condition C) was 40529 luciferase units and 45271 luciferase units and 37116 luciferase units and 32831 luciferase units, the luciferase units (HCVpp; [3]) was 50460 luciferase units and 53231 luciferase units and the luciferase units (HCVpp; [4]) was 47929 luciferase units and 53377 luciferase units. The luciferase units (HCVpp; [5]) was 36956 luciferase units and 46680 luciferase units, the luciferase units (HCVpp; peptide 0.0457 ug/ml, condition D) was 3531 luciferase units and 2785 luciferase units and the luciferase units (HCVpp; [6]) was 44159 luciferase units and 41959 luciferase units. The luciferase units (HCVpp; [7]) was 43468 luciferase units and 36136 luciferase units, the luciferase units (HCVpp; [8]) was 34241 luciferase units and 44163 luciferase units and the luciferase units (HCVpp; peptide 0.1372 ug/ml, condition D) was 2443 luciferase units and 4834 luciferase units. For the same substance, the luciferase units (HCVpp; [9]) was 28106 luciferase units and 25559 luciferase units, the luciferase units (HCVpp; [10]) was 26979 luciferase units and 31819 luciferase units and the luciferase units (HCVpp; [11]) was 40225 luciferase units and 43467 luciferase units. For the same substance, the luciferase units (HCVpp; peptide 0.4115 ug/ml, condition D) was 3257 luciferase units and 2555 luciferase units, the luciferase units (HCVpp; [12]) was 21301 luciferase units and 21733 luciferase units and the luciferase units (HCVpp; [13]) was 25204 luciferase units and 14452 luciferase units. For the same substance, the luciferase units (HCVpp; [14]) was 36450 luciferase units and 40467 luciferase units, the luciferase units (HCVpp; [15]) was 15025 luciferase units and 10613 luciferase units and the luciferase units (HCVpp; [16]) was 15213 luciferase units and 12233 luciferase units. For the same substance, the luciferase units (HCVpp; [17]) was 31857 luciferase units and 32265 luciferase units, the luciferase units (HCVpp; peptide 3.7037 ug/ml, condition D) was 2974 luciferase units and 3707 luciferase units and the luciferase units (HCVpp; [18]) was 12402 luciferase units and 6768 luciferase units. For the same substance, the luciferase units (HCVpp; peptide 11.1111 ug/ml, condition B) was 10212 luciferase units and 6902 luciferase units, the luciferase units (HCVpp; [19]) was 28818 luciferase units and 33022 luciferase units and the luciferase units (HCVpp; peptide 11.1111 ug/ml, condition D) was 3302 luciferase units and 3259 luciferase units. The luciferase units (HCVpp; [20]) was 6467 luciferase units and 6356 luciferase units, the luciferase units (HCVpp; [21]) was 7146 luciferase units and 4501 luciferase units and the luciferase units (HCVpp; [22]) was 23383 luciferase units and 19309 luciferase units. For the same substance, the luciferase units (HCVpp; peptide 33.3333 ug/ml, condition D) was 2351 luciferase units and 2058 luciferase units, the luciferase units (HCVpp; peptide 100.0000 ug/ml, condition A (pre-incubated with cells and virus separately, cells washed)) was 9216 luciferase units and 7419 luciferase units and the luciferase units (HCVpp; peptide 100.0000 ug/ml, condition B (pre-incubated with virus only)) was 8074 luciferase units and 4093 luciferase units. For the same substance, the luciferase units (HCVpp; peptide 100.0000 ug/ml, condition C (pre-incubated with cells only, washed off)) was 19088 luciferase units and 14073 luciferase units, the luciferase units (HCVpp; peptide 100.0000 ug/ml, condition D (as C, virus washed off after 1 hour)) was 780 luciferase units and 1531 luciferase units and the “luciferase units observed in the entry assay” value (from here on “luciferase units observed”) (HCVpp; peptide 0.0046 ug/ml, condition A) was 22435 luciferase units and 18765 luciferase units and 17613 luciferase units and 22306 luciferase units. For the same substance, the “luciferase units observed” value (HCVpp; peptide 0.0046 ug/ml, condition B) was 26860 luciferase units and 23215 luciferase units and 23633 luciferase units and 21213 luciferase units, the “luciferase units observed” value (HCVpp; peptide 0.0046 ug/ml, condition C) was 13903 luciferase units and 13795 luciferase units and 14095 luciferase units and 10535 luciferase units and the “luciferase units observed” value (HCVpp; [3]) was 7498 luciferase units and 7299 luciferase units. For the same substance, the “luciferase units observed” value (HCVpp; [4]) was 6703 luciferase units and 9954 luciferase units, the “luciferase units observed” value (HCVpp; [5]) was 16101 luciferase units and 13757 luciferase units and the “luciferase units observed” value (HCVpp; [6]) was 5745 luciferase units and 7826 luciferase units. For the same substance, the “luciferase units observed” value (HCVpp; [7]) was 7670 luciferase units and 6880 luciferase units, the “luciferase units observed” value (HCVpp; [8]) was 9444 luciferase units and 10124 luciferase units and the “luciferase units observed” value (HCVpp; [9]) was 5517 luciferase units and 5574 luciferase units. The “luciferase units observed” value (HCVpp; [10]) was 4724 luciferase units and 3648 luciferase units, the “luciferase units observed” value (HCVpp; [11]) was 9027 luciferase units and 11381 luciferase units and the “luciferase units observed” value (HCVpp; [12]) was 3584 luciferase units and 5974 luciferase units. The “luciferase units observed” value (HCVpp; [13]) was 5542 luciferase units and 4382 luciferase units, the “luciferase units observed” value (HCVpp; [14]) was 6131 luciferase units and 6853 luciferase units and the “luciferase units observed” value (HCVpp; [15]) was 2824 luciferase units and 3255 luciferase units. For the same substance, the “luciferase units observed” value (HCVpp; [16]) was 3059 luciferase units and 3424 luciferase units, the “luciferase units observed” value (HCVpp; [17]) was 9414 luciferase units and 8570 luciferase units and the “luciferase units observed” value (HCVpp; [18]) was 2833 luciferase units and 2954 luciferase units. The “luciferase units observed” value (HCVpp; [19]) was 7352 luciferase units and 4725 luciferase units, the “luciferase units observed” value (HCVpp; [20]) was 1677 luciferase units and 2383 luciferase units and the “luciferase units observed” value (HCVpp; [21]) was 2900 luciferase units and 1914 luciferase units. For the same substance, the “luciferase units observed” value (HCVpp; [22]) was 8294 luciferase units and 8104 luciferase units, the “luciferase units observed” value (HCVpp; peptide 100 ug/ml, condition A) was 1924 luciferase units and 1845 luciferase units and the “luciferase units observed” value (HCVpp; peptide 100 ug/ml, condition C) was 5118 luciferase units and 8821 luciferase units. For the same substance, the “inhibition compared to anti-CD81 antibody in the wash-off experiment” value (HCVpp; pre-incubated with cells at 37° C. and 4° C.) was “more inhibition”, the “inhibition at condition C” value (HCVpp; pre-incubated with cells only and washed off, then virus added) was “little inhibition” and the “step of HCVpp entry inhibited” value (HCV pseudoparticles [2]) was “largely inhibits a post-attachment step”. For the same substance, the “% control peptide” value (HCV pseudoparticles [2]; A (attachment)) was 39 % control, the “RLU average (peptide)” value (HCV pseudoparticles [2]; A (attachment)) was 5942 RLU and the RLU (HCV pseudoparticles [2]; A (attachment)) was 5196 RLU and 7987 RLU and 4644 RLU. For the same substance, the “% control peptide” value (HCV pseudoparticles [2]; [23]) was 6 % control, the “RLU average (peptide)” value (HCV pseudoparticles [2]; [23]) was 863 RLU and the RLU (HCV pseudoparticles [2]; [23]) was 527 RLU and 1541 RLU and 520 RLU. For the same substance, the inhibition of entry (HCV pseudoparticles [2]; HCV pseudoparticles attached first at 4° C., substance added when post-attachment events occurred) was “approximately 80%”, the “% control peptide” value (HCV pseudoparticles [2]; P (post attachment)) was 11 % control and the “RLU average (peptide)” value (HCV pseudoparticles [2]; P (post attachment)) was 1647 RLU. The RLU (HCV pseudoparticles [2]; P (post attachment)) was 1984 RLU and 2412 RLU and 545 RLU and the inhibition of entry (HCV pseudoparticles [2]; pre-incubated with cells at 4° C., then HCV pseudoparticles at 4° C., washed, 37° C. for 72 hours (attachment)) was “approximately 50%”.
